Experimental data published in patent US9416162B2, “Peptides having reduced toxicity that stimulate cholesterol efflux” (The Regents of the University of California, priority 2013, dated 2016).
Non-standard residues stand in square brackets, D forms with d. Residues, ends and D or L forms follow the SMILES beside them. No end group written: not given here. Cit = NC(=O)NCCC[C@H](N)C(=O)O

Key:
[1] = Scaled Parameters = (Raw Parameters + 2.061)/4.484; cited from earlier work
[2] = test system: C57Bl/6 mice; experiment: Safety and TG elevating effects after IP injection in C57Bl/6 mice (plasma CPK, ALT, AST, lipids); type: in vivo; settings: for muscle toxicity (plasma CPK activity) / cytotoxic/toxic response (plasma CPK, ALT, AST): plasma 4 h after injection
Protocol: The high-dose cytotoxic response of ATI-5261 observed in rat, rabbit and cynomolgus monkey is additionally recapitulated in mice (FIG. 4). Male chow-fed C57bl/6 mice were injected intraperitonelly (IP) with 30 or 300 mg/kg of lipid-fee ATI-5261. Blood was collected via the retro-orbital plexus 4 h after peptide injection and plasma subsequently obtained for measurement of CPK (Panel A) and ALT and AST activities (Panel B, ALT left bars; AST, right bars). Values are means±SD, n=4 mice per group.
This example illustrates that aromatic phenylalanine residues associated with the non-polar surface of ATI-5261 contributed to the majority of the peptide toxicity (FIG. 5). […] Blood was collected via retro-orbital plexus 4 h after injection for isolation of plasma. Levels of plasma CPK (Panel A), ALT (panel B) and AST (Panel C) were determined as described in FIG. 1. Values are means±SD, n=4 mice per group.
All values (mg/dl) are means±SD, n=4, determined at 4 and 6 h post treatment with peptide.

[3] = molecular target: T1, ABCA1 (Mus musculus, UniProt P41233); experiment: ABCA1-dependent [3H]cholesterol efflux from J774 macrophages with and without cAMP; type: cell-based; settings: cAMP treated J774 cells; for efficiency of stimulating cholesterol efflux (concentration dependence): dose response; for Km for cholesterol efflux / peptide concentration at saturation in cholesterol efflux: increasing concentration of peptides, 4 h
T1 construct: treated (18 h) with a cAMP analog to induce ABCA1 protein expression; endogenous in cells; host or cells: J774 macrophages
T1 sequence (P41233 whole entry): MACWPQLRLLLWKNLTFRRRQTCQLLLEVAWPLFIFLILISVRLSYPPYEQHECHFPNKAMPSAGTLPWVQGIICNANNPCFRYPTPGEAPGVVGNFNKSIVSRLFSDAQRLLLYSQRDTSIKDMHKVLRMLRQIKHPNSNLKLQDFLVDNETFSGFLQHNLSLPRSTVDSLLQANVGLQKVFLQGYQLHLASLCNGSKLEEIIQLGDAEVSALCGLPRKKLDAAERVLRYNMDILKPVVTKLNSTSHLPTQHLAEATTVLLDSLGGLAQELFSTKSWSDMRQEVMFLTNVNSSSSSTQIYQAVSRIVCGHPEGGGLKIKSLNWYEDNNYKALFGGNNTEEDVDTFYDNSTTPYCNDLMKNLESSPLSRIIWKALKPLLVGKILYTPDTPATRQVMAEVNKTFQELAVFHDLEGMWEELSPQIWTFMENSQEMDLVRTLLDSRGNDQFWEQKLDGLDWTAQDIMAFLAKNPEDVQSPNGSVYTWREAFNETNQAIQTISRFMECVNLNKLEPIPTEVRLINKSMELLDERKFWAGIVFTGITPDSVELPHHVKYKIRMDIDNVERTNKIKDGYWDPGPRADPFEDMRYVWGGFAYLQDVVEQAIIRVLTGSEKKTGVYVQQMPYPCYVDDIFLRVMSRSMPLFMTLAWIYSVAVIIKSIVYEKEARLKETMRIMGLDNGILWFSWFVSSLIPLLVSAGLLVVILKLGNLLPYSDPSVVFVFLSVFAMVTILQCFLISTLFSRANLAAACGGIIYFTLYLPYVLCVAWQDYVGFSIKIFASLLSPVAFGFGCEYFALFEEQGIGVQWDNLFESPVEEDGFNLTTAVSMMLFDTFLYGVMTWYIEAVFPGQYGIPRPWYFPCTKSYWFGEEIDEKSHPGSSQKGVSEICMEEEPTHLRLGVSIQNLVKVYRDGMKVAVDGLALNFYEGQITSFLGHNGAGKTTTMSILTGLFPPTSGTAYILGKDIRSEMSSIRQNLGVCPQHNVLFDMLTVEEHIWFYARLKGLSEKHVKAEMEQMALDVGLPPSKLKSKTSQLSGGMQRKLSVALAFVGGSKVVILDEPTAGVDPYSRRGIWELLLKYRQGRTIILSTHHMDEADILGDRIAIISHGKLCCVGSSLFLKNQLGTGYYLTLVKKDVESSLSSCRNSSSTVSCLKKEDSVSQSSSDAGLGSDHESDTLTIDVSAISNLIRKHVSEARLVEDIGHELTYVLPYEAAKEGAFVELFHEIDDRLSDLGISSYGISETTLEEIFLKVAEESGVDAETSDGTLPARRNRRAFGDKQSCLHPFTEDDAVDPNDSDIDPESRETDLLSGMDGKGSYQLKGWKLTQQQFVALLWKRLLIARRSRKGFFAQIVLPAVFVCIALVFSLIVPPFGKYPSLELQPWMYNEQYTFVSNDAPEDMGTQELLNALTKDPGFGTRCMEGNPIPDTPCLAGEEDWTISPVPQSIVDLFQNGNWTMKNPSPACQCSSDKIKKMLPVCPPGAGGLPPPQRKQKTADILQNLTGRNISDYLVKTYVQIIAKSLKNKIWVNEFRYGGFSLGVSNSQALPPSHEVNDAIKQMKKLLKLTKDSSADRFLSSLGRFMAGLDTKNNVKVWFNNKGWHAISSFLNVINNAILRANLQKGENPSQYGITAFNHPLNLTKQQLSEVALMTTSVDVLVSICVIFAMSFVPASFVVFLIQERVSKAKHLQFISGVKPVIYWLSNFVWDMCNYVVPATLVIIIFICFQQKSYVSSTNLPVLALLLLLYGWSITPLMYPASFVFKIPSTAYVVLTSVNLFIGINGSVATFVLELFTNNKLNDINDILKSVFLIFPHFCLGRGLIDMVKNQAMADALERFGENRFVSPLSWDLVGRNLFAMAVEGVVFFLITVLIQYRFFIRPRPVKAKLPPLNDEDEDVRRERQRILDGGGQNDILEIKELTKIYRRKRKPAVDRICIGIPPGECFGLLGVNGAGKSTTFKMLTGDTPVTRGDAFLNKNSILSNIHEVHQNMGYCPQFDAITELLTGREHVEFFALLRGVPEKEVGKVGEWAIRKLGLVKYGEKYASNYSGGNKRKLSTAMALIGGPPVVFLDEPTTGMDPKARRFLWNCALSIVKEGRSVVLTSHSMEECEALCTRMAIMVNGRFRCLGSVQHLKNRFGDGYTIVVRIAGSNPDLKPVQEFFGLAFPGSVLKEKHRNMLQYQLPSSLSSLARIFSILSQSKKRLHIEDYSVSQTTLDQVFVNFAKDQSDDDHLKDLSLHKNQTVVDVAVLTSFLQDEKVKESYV
From the text: Suitable cholesterol efflux assays are described in, e.g., Bielicki, J. K and Oda, M. N., Biochemistry, 41:2089-2096 (2002); Jia et al., Biochem. Biophys. Res. Common., 297:206-213 (2002). In some embodiments, a polypeptide known to mediate cholesterol efflux (e.g., helix 9/10 of Apo A-I) is used to screen for additional mediators of cholesterol efflux in a cell based assay. For example, cell lines in which cholesterol efflux can be enhanced using a cAMP analog that up-regulates ABCA1 protein expression (e.g., J774 macrophages) can conveniently be used to assess the ability of a polypeptide of the present invention to mediate cholesterol efflux. The cells are incubated with labeled cholesterol (e.g., [^3H]cholesterol) under conditions appropriate for cholesterol uptake by the cells. Thus, cAMP or cAMP analogs (e.g., CPT-cAMP) are incubated with the cells for a suitable time before the initiation of cellular cholesterol efflux, i.e., prior to contacting the cells with a test polypeptide. Measurement of labeled cholesterol appearing in the medium is used to determine the cholesterol efflux mediating activity of the test polypeptide.
Aliphatic analogs of ATI-5261 lacking phenylalanine residues retained potent ABCA1 selective cholesterol efflux activity (FIG. 7). J774 macrophages were labeled (48 h) with [^3H]cholesterol and treated (18 h) with a cAMP analog to induce ABCA1 protein expression; cells incubated in the absence of cAMP (left bars) served as controls. […] Peptides were used at a concentration of 30 μg/ml, which was maximal for promoting cholesterol efflux activity. Panel B—Dependence of cholesterol efflux on the concentration of peptides. […] Results are expressed as the difference in cholesterol efflux (%/4 h) observed using cAMP treated vs. non-treated J774 cells. Values are means±SD, n=3.

[4] = molecular target: T1, ABCA1; experiment: as above; type: cell-based; design: ABCA1-dependent cholesterol efflux: dose or concentration left out as unconfirmed; settings: for ABCA1-dependent cholesterol efflux: J774 with/without cAMP, acceptors lipid-free, 4 h
[5] = male chow-fed C57Bl/6 mice, IP 300 mg/kg

C[C@H](N)C(=O)O [Alanine]
Hydrophobicity (scaled computational log(P)) [1]: 0.616

N=C(N)NCCC[C@H](N)C(=O)O [Arginine]
Hydrophobicity (scaled computational log(P)) [1]: 0.000

NC(=O)C[C@H](N)C(=O)O [Asparagine]
Hydrophobicity (scaled computational log(P)) [1]: 0.236

N[C@@H](CCC(=O)O)C(=O)O [Glutamate]
Hydrophobicity (scaled computational log(P)) [1]: 0.043

NCC(=O)O [Glycine]
Hydrophobicity (scaled computational log(P)) [1]: 0.501

N[C@@H](Cc1c[nH]cn1)C(=O)O [Histidine]
Hydrophobicity (scaled computational log(P)) [1]: 0.165

CC[C@H](C)[C@H](N)C(=O)O [Isoleucine]
Hydrophobicity (scaled computational log(P)) [1]: 0.943

NCCCC[C@H](N)C(=O)O [Lysine]
Hydrophobicity (scaled computational log(P)) [1]: 0.283

CSCC[C@H](N)C(=O)O [Methionine]
Hydrophobicity (scaled computational log(P)) [1]: 0.738

N[C@@H](Cc1ccccc1)C(=O)O [Phenylalanine]
Hydrophobicity (scaled computational log(P)) [1]: 1.00

O=C(O)[C@@H]1CCCN1 [Proline]
Hydrophobicity (scaled computational log(P)) [1]: 0.711

CC[C@H](C)[C@H](NC(=O)[C@H](C)NC(=O)[C@H](C)NC(=O)[C@@H](NC(=O)[C@H](Cc1c[nH]c2ccccc12)NC(=O)[C@H](CCC(=O)O)NC(=O)[C@H](CCC(=O)O)NC(=O)[C@H](CC(C)C)NC(=O)[C@H](CCCCN)NC(=O)[C@H](CO)NC(=O)[C@H](CCCNC(N)=O)NC(=O)[C@@H](NC(=O)[C@@H](N)CCC(=O)O)C(C)C)[C@@H](C)CC)C(=O)N[C@@H](CCCNC(N)=O)C(=O)N[C@@H](CCC(=O)O)C(=O)N[C@H](C(=O)N[C@@H](C)C(=O)N[C@@H](CCC(=O)O)C(=O)N[C@@H](CCC(=O)O)C(=O)N[C@H](C(=O)N[C@@H](CC(C)C)C(=O)N[C@@H](C)C(=O)N[C@@H](CCCNC(=N)N)C(=O)N[C@@H](CC(C)C)C(=O)N[C@@H](CCCCN)C(=O)N[C@@H](CO)C(=O)O)[C@@H](C)CC)[C@@H](C)CC [T6991-2, EVC*SKLEEWIAAIC*EIAEEILARLKS (SEQ ID NO:3)] (H-EV[Cit]SKLEEWIAAI[Cit]EIAEEILARLKS-OH)
muscle toxicity (plasma CPK activity) [2, 5]: little or no cytotoxic properties

C[C@@H](O)[C@H](N)C(=O)O [Threonine]
Hydrophobicity (scaled computational log(P)) [1]: 0.450

N[C@@H](Cc1c[nH]c2ccccc12)C(=O)O [Tryptophan]
Hydrophobicity (scaled computational log(P)) [1]: 0.878

N[C@@H](Cc1ccc(O)cc1)C(=O)O [Tyrosine]
Hydrophobicity (scaled computational log(P)) [1]: 0.880

CC(C)[C@H](N)C(=O)O [Valine]
Hydrophobicity (scaled computational log(P)) [1]: 0.825

EARSKAEEWLAALLELAEELLARAKS [T5211-2]
cytotoxic/toxic response (plasma CPK, ALT, AST) [2, 5]: little or no toxic responses

EARSKAEEWLAALRELAEELLARAKS [T5505-12]
TG elevating effects (plasma TG) [2, 5]: greatly ablated | cytotoxic/toxic response (plasma CPK, ALT, AST) [2, 5]: low toxicity

EVKSKLEEWFAAFKEFAEEFLAKLKS [T5594-5]
cytotoxic/toxic response (plasma CPK, ALT, AST) [2, 5]: displayed cytotoxic and TG elevating activity

EVNSKLEEWLAALNELAEELLARLKS [T5766-4]
muscle toxicity (plasma CPK activity) [2, 5]: greatly reduced

EVQSKLEEWLAALQELAEELLARLKS [T5766-3]
muscle toxicity (plasma CPK activity) [2, 5]: greatly reduced

EVRSKLEEWFAAFREFAEEFLARL [T5766-5]
cytotoxic/toxic response (plasma CPK, ALT, AST) [2, 5]: reduce the toxic responses | muscle toxicity (plasma CPK activity) [2, 5]: greatly reduced muscle toxicity

EVRSKLEEWFAAFREFAEEFLARLNS [T5594-4]
muscle toxicity (plasma CPK activity) [2, 5]: greatly reduced muscle toxicity

EVRSKLEEWIAAIREIAEEILARLKS [T6991-1]
muscle toxicity (plasma CPK activity) [2, 5]: little or no cytotoxic properties

EVRSKLEEWLAALRELAEELAARLKS [T4883-7]
TG elevating effects (plasma TG) [2, 5]: further reduced | cytotoxic/toxic response (plasma CPK, ALT, AST) [2, 5]: further reduced cytotoxic response | muscle toxicity (plasma CPK activity) [2, 5]: eliminate the residual muscle toxicity

EVRSKLEEWLAALRELAEELLARAKS [T4883-6]
TG elevating effects (plasma TG) [2, 5]: further reduced | cytotoxic/toxic response (plasma CPK, ALT, AST) [2, 5]: further reduced cytotoxic response | muscle toxicity (plasma CPK activity) [2, 5]: eliminate the residual muscle toxicity

EVRSKLEEWLAALRELAEELLARLKS [T5055-13]
plasma TG, total and unesterified (free) cholesterol (FC) ([2]; C57Bl/6 mice, 300 mg/kg, 4 and 6 h post treatment): greatly attenuated | muscle toxicity (plasma CPK activity) [2, 5]: residual toxicity

EVRSKLQEWFAAFREFAQEFLARLKS [T5554-1]
cytotoxic/toxic response (plasma CPK, ALT, AST) [2, 5]: large increase in the toxic response

T5505-9: ATI-5261 analog with L24A; W9L substitutions (EVRSKLEELLAALRELAEELLARAKS; synthetic amphipathic alpha-helix cholesterol efflux peptide T5505-9, LeuATI-5261 analog)
TG elevating effects (plasma TG) [2, 5]: markedly reduced | plasma ALT and/or AST (general, hepatic toxicity) [2, 5]: markedly reduced | muscle toxicity (plasma CPK activity) [2, 5]: markedly reduced | efficiency of stimulating cholesterol efflux (concentration dependence) [3]: high efficiency | Km for cholesterol efflux [3]: 0.58 µg/mL | peptide concentration at saturation in cholesterol efflux [3]: ~3 µg/mL

T5554-4: E→Q analog carrying the favorable citrulline substitutions (EV[Cit]SKLQEWFAAFREFAEEFLARLKS)
cytotoxic/toxic response (plasma CPK, ALT, AST) [2, 5]: retained strong toxic (CPK, ALT, and AST) and TG elevating responses

T5554-5: E→Q analog carrying the favorable citrulline substitutions, net-charge −1 (EV[Cit]SKLQEWFAAF[Cit]EFAQEFLARLKS)
cytotoxic/toxic response (plasma CPK, ALT, AST) [2, 5]: retained strong toxic (CPK, ALT, and AST) and TG elevating responses

T6275-5: citrulline form of LeuATI-5261 with single citrulline14→L substitution (EV[Cit]SKLEEWLAALLELAEELLARLKS)
efficiency of stimulating cholesterol efflux (concentration dependence) [3]: highly efficient manner | Km for cholesterol efflux [3]: low Km | peptide concentration at saturation in cholesterol efflux [3]: 3 µg/mL

Y26 form of CS6253: CS6253 with a S26→Y substitution to facilitate labeling with 125I (SEQ ID NO:87) (EV[Cit]SKLEEWLAAL[Cit]ELAEELLARLKY)
ABCA1-dependent cholesterol efflux activity ([4]; J774 macrophages with/without cAMP, peptide 10 μg/ml): mediating high-levels of cholesterol efflux

apoA-I: Apolipoprotein A-I, native apolipoprotein used lipid-free as cholesterol efflux acceptor
ABCA1-dependent cholesterol efflux [4]: High-levels of cholesterol efflux

apoE: Apolipoprotein E, native apolipoprotein used lipid-free as cholesterol efflux acceptor
ABCA1-dependent cholesterol efflux [4]: High-levels of cholesterol efflux
